Like-named read-outs stand apart in the source and are kept apart here.
Columns and labels:
[1] = system: rat model of hyperalgesia induced by carragenine; experiment: Paw pressure test, hyperalgesia induced by carragenine; type: in vivo
Method: (§1) Male Swiss albino mice (23-25 g) and Sprague Dawley or Wistar rats (150-200 g) were used. The animals were fed a standard laboratory diet and tap water ad libitum and kept at 23±1° C. with a 12 h light/dark cycle, light on at 7 a.m.
The nociceptive threshold in the rat was determined with an analgesimeter, according to the method described by Leighton et al, G. E.; Br. J. Pharmacol. 1988, 93, 553-560. Threshold pressure was measured before and 30, 60 and 120 min after treatment. An arbitrary cut-off value of 250 g was adopted. In order to induce an inflammatory process in the rat paw carrageenan (0.1 ml, 1%) was administered i.p. 4 h before test.

[2] = system: rat model of edema induced by carragenine; experiment: Carrageenan-induced paw edema; type: in vivo; conditions: 1 h, 60 min, read-out: Edema inhibition 60 min, MPE
Method: as §1
Rats paw volumes were measured using a plethysmometer. Rats received the investigated compounds 4 hours after a 0.1-ml injection of 1.0% carrageenan in the right hind paw. Five hours after the injection of carrageenan (i.e. 1 hour after the administration of the investigated compound), the paw volume of the right hind paw was measured and compared with saline/carrageenan-treated controls. Results are reported as maximum percent effect (MPE), see below for detailed explanation.

[3] = system: rat model of hyperalgesia induced by Zymosan; experiment: Zymosan-induced hyperalgesia (Randal-Selitto); type: in vivo; conditions: oral, 3 mg/Kg
Method: as §1
(§2) The interplantar injection of Zymosan-induced mechanical hyperalgesia may be used as a model of inflammatory pain (Meller, Neuropharmacology, 1994, 33, 1471-1478). In this model, typically a male Sprague-Dawely or Wistar rat (200-250 g) receives an interplantar injection of 4 mg/100 μl zymosan into one hind paw. A marked inflammation occurs in this hind paw. Drugs are administered orally for evaluation of efficacy, 30 min. before the inflammatory insult. The hyperalgesia induced by zymosan administration was evaluated using the Randal-Selitto method (Arch. Int. Pharmacodyn., 1957, 111, 409). The quantitation of the analgesic effect is achieved by an analgesimeter, which consist in applying to the inflamed paw an increasing weight (from 130-140 g up to 500 g). The difference in the mechanical pain threshold between the basal value (generally 230-250 g) and the one tolerated by the animals treated with the drug, determined 4 hours after the inflammatory challenge, is defined as mechanical hyperalgesia.
Mechanical hyperalgesia is expressed for the compounds of the invention as maximum percent effect (MPE) which represents the difference (%) in pain threshold between the animals treated with the drug and the controls that received only the vehicle.
Results are reported as MPE (reduction of the nociceptive effect, due to paw loading with increasing weight, in comparison to controls). 100% MPE means that the animal treated with the compound and Zymosan can tolerate the same stimulus (weight) as the control animals which have not received Zymosan treatment. MPE higher than 100% mean that the animal treated with the compound and Zymosan can tolerate stimuli (weight) higher than the control animals, which has not received Zymosan treatment (hypoalgesia).

[4] = system: rat model of edema induced by Zymosan; experiment: Zymosan-induced paw edema; type: in vivo; conditions: oral, 3 mg/Kg
Method: as §1, §2
In vivo anti-inflammatory effect exerted by the compounds of the invention can be assessed in the same Zymosan induced inflammation test described above, by measuring the volume of the oedema induced by the inflammatory agent. The oedema was evaluated as the increase in the volume of the Zymosan injected paw within a time of 0-2 hrs. The measurements of the variation of the oedema volume of the paw were recorded using hydroplethysmometer. Results are expressed as MPE, maximum percent effect, that in this case represents the reduction (%) in the oedema of treated animals in comparison to controls (animals treated with Zymosan, which received only the vehicle).

[5] = study whether Celecoxib could treat AD; cited from earlier work
low-density lipoprotein = conditions: cited from earlier work
[6] = system: mouse abdominal constriction (writhing); experiment: Mouse abdominal constriction test (acetic acid 0.6%), writhing test; type: in vivo; conditions: mice, 30 min before test, control 38.1 ± 2.6
Method: as §1
Mice were injected i.p. with a 0.6% solution of acetic acid (10 ml/kg), according to Koster et al. Fed. Proc., 1959, 18, 412. The number of stretching movements was counted for 10 min, starting 5 min after acetic acid injection.

COX-2 = target: T1, COX-2 (Mus musculus, UniProt Q05769); experiment: Assessment of COX-2 activity in LPS-stimulated J774 cells (PGE2 radioimmunoassay); type: cell-based, murine; conditions: Table 2, Formula Ia
T1 construct: lipopolysaccharide (LPS, 10 μg/mL) to induce COX-2; endogenous in cells; host or cells: J774 murine monocyte/macrophage cell line, LPS-stimulated
T1 sequence (Q05769 18-604): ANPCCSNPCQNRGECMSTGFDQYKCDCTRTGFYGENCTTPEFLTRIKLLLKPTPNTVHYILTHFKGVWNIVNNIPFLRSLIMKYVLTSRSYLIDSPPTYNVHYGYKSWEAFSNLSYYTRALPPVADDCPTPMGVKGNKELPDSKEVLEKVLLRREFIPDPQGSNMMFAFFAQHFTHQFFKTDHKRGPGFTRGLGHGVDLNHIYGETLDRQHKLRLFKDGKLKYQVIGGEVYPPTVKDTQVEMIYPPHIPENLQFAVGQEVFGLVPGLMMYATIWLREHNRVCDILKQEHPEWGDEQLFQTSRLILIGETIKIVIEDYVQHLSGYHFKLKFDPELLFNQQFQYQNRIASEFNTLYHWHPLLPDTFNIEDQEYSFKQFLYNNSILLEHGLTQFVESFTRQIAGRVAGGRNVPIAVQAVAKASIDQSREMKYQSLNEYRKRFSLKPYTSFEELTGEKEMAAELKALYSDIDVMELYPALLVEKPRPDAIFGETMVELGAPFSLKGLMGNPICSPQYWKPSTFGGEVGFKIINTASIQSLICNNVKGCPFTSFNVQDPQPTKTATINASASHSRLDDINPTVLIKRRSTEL
Method: Cells were stimulated for 24 h with E. coli lipopolysaccharide (LPS, 10 μg/mL) to induce COX-2, in the absence or presence of test compounds, at the concentrations previously reported. The supernatants were collected for the measurement of PGE2 by radioimmunoassay.
Analysis. Throughout the time the experiments lasted, triplicate wells were used for the various conditions of treatment. Results are expressed as the mean, for 3 experiments, of the % inhibition of PGE2 production by test compounds with respect to control samples. Data fit was obtained using the sigmoidal dose-response equation (variable slope). The IC50 were calculated by GraphPad Instat program (GraphPad software).

[7] = VIGOR trial; cited from earlier work
glaucomatous rabbits = conditions: not COX-2 dependent effect; cited from earlier work
[8] = 0.5 h, 30 min, read-out: Analgesia 30 min MPE
[9] = 1 h, 60 min, read-out: Analgesia 60 min MPE

SMILES	inhibition in vivo at 20 mg/kg [1, 8]	inhibition in vivo at 20 mg/kg [1, 9]	inhibition in vivo at 20 mg/kg [2]	melting point	COX-1/COX-2 Selectivity Index (IC50 ratio) (COX-2)	Number of writhes ([6]; 20 mg/Kg s.c.)	other results
Cc1ccc(-c2cc(C(F)(F)F)nn2-c2ccc(S(N)(=O)=O)cc2)cc1 [Celecoxib]	73%	81%	95%	–	–	–	Analgesia 0-2 hrs MPE [3]: 30%; Analgesia 0-6 hrs MPE [3]: 35%; Edema 0-6 hrs MPE [4]: 24.8%; incidence of heart attack in the treated group in comparison to placebo [5]: four times higher; susceptibility of low-density lipoprotein to oxidative modifications (low-density lipoprotein): had no effect
Cc1c(CC(=O)OC(C)C)cc(-c2ccc(S(C)(=O)=O)cc2)n1-c1ccccc1 [Example 1, Isopropyl[2-methyl-5-(4-methylsulphonyl)phenyl-1-phenyl-1H-pyrrol-3-yl]acetate]	–	–	–	160 °C	–	–	inhibition in vivo at 5 mg/kg [1, 8]: 80%; inhibition in vivo at 5 mg/kg [1, 9]: 60%; inhibition in vivo at 5 mg/kg ([2]; 5 mg/Kg): 100%; Analgesia 0-2 hrs MPE [3]: 75%; Analgesia 0-6 hrs MPE [3]: 70%; Edema 0-2 hrs MPE [4]: 20%; Edema 0-6 hrs MPE [4]: 15%; Number of writhes ([6]; 5 mg/Kg s.c.): 28.5 ± 3.3
Cc1c(CC(=O)OC(C)C)cc(-c2ccc(S(C)(=O)=O)cc2)n1-c1ccc(F)c(F)c1 [Example 2, Isopropyl[1-(3,4-difluoro)phenyl-2-methyl-5-(4-methylsulphonyl)phenyl-1H-pyrrol-3-yl]acetate]	100%	70%	91%	143 °C	>4700	21.5 ± 3.9	–
COc1ccc(-n2c(-c3ccc(S(C)(=O)=O)cc3)cc(CC(=O)OC(C)C)c2C)cc1 [Example 3, Isopropyl[1-(4-methoxy)phenyl-2-methyl-5-(4-methylsulphonyl)phenyl-1H-pyrrol-3-yl]acetate]	67%	90%	77%	138 °C	>4500	18.5 ± 3.5	–
Cc1c(CC(=O)OC(C)C)cc(-c2ccc(S(C)(=O)=O)cc2)n1-c1cccc(F)c1 [Example 4, Isopropyl[1-(3-fluoro)phenyl-2-methyl-5-(4-methylsulphonyl)phenyl-1H-pyrrol-3-yl]acetate]	84%	80%	87%	100 °C	>2300	17.7 ± 2.9	–
CCCCOC(=O)Cc1cc(-c2ccc(S(C)(=O)=O)cc2)n(-c2ccc(F)c(F)c2)c1C [Example 5, n-Butyl[1-(3,4-difluoro)phenyl-2-methyl-5-(4-methylsulphonyl)phenyl-1H-pyrrol-3-yl]acetate]	76%	100%	74%	112 °C	>3300	13.7 ± 4.0	–
CS(=O)(=O)c1ccc(C2=C(c3ccccc3)C(=O)OC2)cc1 [Rofecoxib]	–	–	–	–	>800	–	incidence of acute myocardial infarction, Rofecoxib arm compared with the Naproxen arm [7]: five-fold increase; effect on intraocular pressure (glaucomatous rabbits): had no effect; susceptibility of low-density lipoprotein to oxidative modifications (low-density lipoprotein): increases susceptibility
Cc1onc(-c2ccccc2)c1-c1ccc(S(N)(=O)=O)cc1 [Valdecoxib]	–	–	–	–	–	–	effect on intraocular pressure (glaucomatous rabbits): reduce intraocular pressure
